Values of other authors as cited in US20080102144A1, “FAT BETA-OXIDATION ENHANCING AND CARBOHYDRATE ABSORPTION INHIBITION SUPPLEMENT” (priority 2006, published 2008).
Read-outs that look alike come from different tables or passages of the source.

Legend:
[1] = mice
[2] = system: carnitine palmitoyltransferase; details: 0.5% and 1.0% supplemented diets after 6 days
[3] = system: hepatic glucose-6-phosphate (G-6-P); details: rate-limiting step in gluconeogenesis
[4] = 16 weeks, versus triacylglycerol
[5] = human studies, as opposed to triacylglycerol, no increase in energy expenditure

For Cn1c(=O)c2c(ncn2C)n(C)c1=O [caffeine], the “total serum triglyceride levels” value [1] is listed as “decreased”.
For O=C(/C=C/c1ccc(O)c(O)c1)O[C@@H]1C[C@](O)(C(=O)O)C[C@@H](O)[C@H]1O [chlorogenic acid], the “cell cycle phase of proliferation arrest” value (3T3-preadipocyte cells; 3T3-preadipocyte cells) is listed as “G1 phase”, the “proliferation of 3T3-preadipocyte cells” value (3T3-preadipocyte cells; addition to 3T3-preadipocyte tissue cultures) is listed as “inhibited the proliferation in both and a time- and dose-dependant manner” and the “carnitine palmitoyltransferase activity in the liver” value [2] is listed as “did not enhance”. The “inhibition of hepatic glucose-6-phosphate (G-6-P)” value [3] was “selectively inhibit”.
For diacylglycerol, the hepatic fat oxidation (after a single dose, compared to triacylglycerol) is given as “significant increase”, the “β-oxidation of fatty acids” value (animal studies, compared against triacylglycerol) is given as “increase” and the “glucose-6-phophate dehydrogenase, malic enzyme, fatty acid synthase and fatty acid synthesis” value (rats fed diacylglycerol) is given as “lower”. The “mitochondrial and peroxisome oxidation of palmtoyl-CoA in liver homogenates” value (rats fed diacylglycerol) was “increased”, the body mass index [4] was “significant decrease” and the body weight [4] was “significant decrease”. For the same compound, the “total fat area as assessed by CT scan” value [4] was “significantly reduced”, the waist circumference [4] was “significant decrease” and the “β-oxidation of fatty acids” value [5] was “increase”.
